Test results as given in patent publication US12226401B2, “Molecular genetic approach to treatment and diagnosis of alcohol and drug dependence” (priority 2010, dated 2025).

Tested on: alcohol dependent individuals
Assay: Randomized, double-blind, placebo-controlled, 12-week clinical trial of ondansetron vs placebo in alcohol dependent individuals by genotype: drinks per drinking day (DDD)
Type: in vivo, human
Conditions: for Drinks per Drinking Days, Least Squares Mean (Estimated Mean): OND
Protocol: Two hundred and seventy eight male and female alcohol dependent individuals were entered into a randomized, double-blind, placebo-controlled, 12-week clinical trial. These individuals were divided into TT vs. […] The polymorphisms in 3''-UTR region of a gene may affect mRNA expression levels by altering their stability. […] Data was transformed to its natural log to correct for skewness. […] In total, ten SNPs in 5HT3a and nine SNPs in 5HT3b genes were analyzed in this study: […]

Cc1nccn1CC1CCc2c(c3ccccc3n2C)C1=O (stereo not drawn) [ondansetron, 9-methyl-3-[(2-methyl-1H-imidazol-1-yl)methyl]-1,2,3,9-tetrahydrocarbazol-4-one]
Estimate, OND vs. Placebo, drinks per drinking days (DDD) (AA or AC (RS1176719, RS17614942)): −2.83 DDD
Estimate, OND vs. Placebo, drinks per drinking days (DDD) (AG or AC (RS1150226, RS17614942)): −2.12 DDD
Estimate, OND vs. Placebo, drinks per drinking days (DDD) (AG or GG (RS1150226, RS1176713)): −2.43 DDD
Least Squares Mean Difference, Drinks per Drinking Days, OND vs. Placebo (Among Comb (LL + TT or AC or AG)): −1.75
Least Squares Mean Difference, Drinks per Drinking Days, Comb vs. Others (Among OND, Comb = LL + TT or AC or AG): −2.21
Least Squares Mean Difference, Drinks per Drinking Days, AG/AA vs. GG (Among OND, RS1150226): −1.91
Least Squares Mean Difference, Drinks per Drinking Days, AC/AA vs. CC (Among OND, RS17614942): −2.13
Least Squares Mean Difference, Drinks per Drinking Days, AC/AA vs. CC (Among OND, model RS17614942 (CC/AA, AC), Table 2G): −2.22
Least Squares Mean Difference, Drinks per Drinking Days, OND vs. Placebo (Among RS1150226 AG/AA): −1.80
Least Squares Mean Difference, Drinks per Drinking Days, OND vs. Placebo (Among RS17614942 AC/AA): −2.51
Least Squares Mean, Drinks per Drinking Days (Comb (LL + TT or AC or AG)): 4.21
Estimate, OND vs. Placebo, drinks per drinking days (DDD) (GG or AC (RS1176713, RS17614942)): −3.08 DDD
Estimate, OND vs. Placebo, drinks per drinking days (DDD) (LL + AA (5-HTTLPR, RS1176719)): −5.22 DDD
Estimate, OND vs. Placebo, drinks per drinking days (DDD) (LL + AA + AC (5-HTTLPR, RS1176719, RS17614942)): −5.96 DDD
Estimate, OND vs. Placebo, drinks per drinking days (DDD) (LL + AC (5-HTTLPR, RS17614942)): −4.24 DDD
Estimate, OND vs. Placebo, drinks per drinking days (DDD) (LL + AG (5-HTTLPR, RS1150226)): −3.06 DDD
Estimate, OND vs. Placebo, drinks per drinking days (DDD) (LL + AG + AC (5-HTTLPR, RS1150226, RS17614942)): −4.09 DDD
Drinks per Drinking Days, Least Squares Estimated Mean Difference (LL + CT/TT: OND vs. Placebo, simplified model): −1.55
Estimate, OND vs. Placebo, drinks per drinking days (DDD) (LL + GG (5-HTTLPR, RS1176713)): −4.48 DDD
Estimate, OND vs. Placebo, drinks per drinking days (DDD) (LL + TT (5-HTTLPR, RS1042173)): −2.08 DDD
Estimate, OND vs. Placebo, drinks per drinking days (DDD) (LL + TT + AA (5-HTTLPR, RS1042173, RS1176719)): −8.50 DDD
Estimate, OND vs. Placebo, drinks per drinking days (DDD) (LL or AA or AC (5-HTTLPR, RS1176719, RS17614942)): −1.55 DDD
Estimate, OND vs. Placebo, drinks per drinking days (DDD) (LL or AC (5-HTTLPR, RS17614942)): −1.53 DDD
Estimate, OND vs. Placebo, drinks per drinking days (DDD) (LL or AG (5-HTTLPR, RS1150226)): −1.37 DDD
Estimate, OND vs. Placebo, drinks per drinking days (DDD) (LL or AG or AC (5-HTTLPR, RS1150226, RS17614942)): −1.43 DDD
Estimate, OND vs. Placebo, drinks per drinking days (DDD) (LL or GG (5-HTTLPR, RS1176713)): −1.60 DDD
Estimate, OND vs. Placebo, drinks per drinking days (DDD) (LL or GG or AC (5-HTTLPR, RS1176713, RS17614942)): −1.57 DDD
Estimate, OND vs. Placebo, drinks per drinking days (DDD) (LL or TT (5-HTTLPR, RS1042173)): −0.87 DDD
Estimate, OND vs. Placebo, drinks per drinking days (DDD) (LL or TT or AA (5-HTTLPR, RS1042173, RS1176719)): −0.99 DDD
Estimate, OND vs. Placebo, drinks per drinking days (DDD) (LL or TT or AA or AC (5-HTTLPR, RS1042173, RS1176719, RS17614942)): −1.02 DDD
Estimate, OND vs. Placebo, drinks per drinking days (DDD) (LL or TT or AC (5-HTTLPR, RS1042173, RS17614942)): −0.97 DDD
Estimate, OND vs. Placebo, drinks per drinking days (DDD) (LL or TT or AG (5-HTTLPR, RS1042173, RS1150226)): −0.94 DDD
Estimate, OND vs. Placebo, drinks per drinking days (DDD) (LL or TT or AG or AC (5-HTTLPR, RS1042173, RS1150226, RS17614942)): −0.93 DDD
Estimate, OND vs. Placebo, drinks per drinking days (DDD) (LL or TT or GG (5-HTTLPR, RS1042173, RS1176713)): −0.94 DDD
Reduction of DDD by ondansetron, carriers vs non-carriers of genotype combination (LL+AC/AA (5HTTLPR + rs17614942)): 3.33 sd
Reduction of DDD by ondansetron, carriers vs non-carriers of genotype combination (LL+CT/TT (5HTTLPR + rs4938056)): 1.82 sd
Drinks per Drinking Days, Least Squares Estimated Mean Difference (OND vs. Placebo, all genotypes, model RS17614942): −0.96
Drinks per Drinking Days, Least Squares Estimated Mean Difference (OND vs. Placebo, all genotypes, model RS17614942 and 5-HTTLPR): −1.13
Drinks per Drinking Days, Least Squares Mean (Estimated Mean) (5-HTTLPR LL, model 5-HTTLPR and RS1062613): 4.80
Drinks per Drinking Days, Least Squares Mean (Estimated Mean) (5-HTTLPR LL, model 5-HTTLPR and RS1150226): 4.59
Drinks per Drinking Days, Least Squares Mean (Estimated Mean) (5-HTTLPR LL, model RS4938056 and 5-HTTLPR): 5.18
Drinks per Drinking Days, Least Squares Mean (Estimated Mean) (5-HTTLPR LL, model RS17614942 and 5-HTTLPR): 4.43
Drinks per Drinking Days, Least Squares Mean (Estimated Mean) (5-HTTLPR LS/SS, model 5-HTTLPR and RS1062613): 6.19
Drinks per Drinking Days, Least Squares Mean (Estimated Mean) (5-HTTLPR LS/SS, model 5-HTTLPR and RS1150226): 5.86
Drinks per Drinking Days, Least Squares Mean (Estimated Mean) (5-HTTLPR LS/SS, model RS4938056 and 5-HTTLPR): 6.54
Drinks per Drinking Days, Least Squares Mean (Estimated Mean) (5-HTTLPR LS/SS, model RS17614942 and 5-HTTLPR): 5.76
Drinks per Drinking Days, Least Squares Mean (Estimated Mean) (LL + CT/TT, simplified model): 4.61
Drinks per Drinking Days, Least Squares Mean (Estimated Mean) (Others (not LL + CT/TT), simplified model): 6.25
Drinks per Drinking Days, Least Squares Mean (Estimated Mean) (RS1062613 TC/CC, model 5-HTTLPR and RS1062613): 4.98
Drinks per Drinking Days, Least Squares Mean (Estimated Mean) (RS1062613 TC/CC, model RS1062613): 5.13
Drinks per Drinking Days, Least Squares Mean (Estimated Mean) (RS1062613 TT, model 5-HTTLPR and RS1062613): 6.02
Drinks per Drinking Days, Least Squares Mean (Estimated Mean) (RS1062613 TT, model RS1062613): 6.19
Drinks per Drinking Days, Least Squares Mean (Estimated Mean) (RS1150226 AG/AA, model 5-HTTLPR and RS1150226): 4.60
Drinks per Drinking Days, Least Squares Mean (Estimated Mean) (RS1150226 AG/AA, model RS1150226): 4.58
Drinks per Drinking Days, Least Squares Mean (Estimated Mean) (RS1150226 GG, model 5-HTTLPR and RS1150226): 5.85
Drinks per Drinking Days, Least Squares Mean (Estimated Mean) (RS1150226 GG, model RS1150226): 6.04
Drinks per Drinking Days, Least Squares Mean (Estimated Mean) (RS4938056 CC, model RS4938056): 6.67
Drinks per Drinking Days, Least Squares Mean (Estimated Mean) (RS4938056 CC, model RS4938056 and 5-HTTLPR): 6.42
Drinks per Drinking Days, Least Squares Mean (Estimated Mean) (RS4938056 CT/TT, model RS4938056): 5.43
Drinks per Drinking Days, Least Squares Mean (Estimated Mean) (RS4938056 CT/TT, model RS4938056 and 5-HTTLPR): 5.29
Drinks per Drinking Days, Least Squares Mean (Estimated Mean) (RS17614942 AC/AA, model RS17614942): 4.40
Drinks per Drinking Days, Least Squares Mean (Estimated Mean) (RS17614942 AC/AA, model RS17614942 and 5-HTTLPR): 4.37
Drinks per Drinking Days, Least Squares Mean (Estimated Mean) (RS17614942 CC, model RS17614942): 6.00
Drinks per Drinking Days, Least Squares Mean (Estimated Mean) (RS17614942 CC, model RS17614942 and 5-HTTLPR): 5.82
Drinks per Drinking Days, Least Squares Mean (Estimated Mean) (all genotypes, model 5-HTTLPR and RS1062613): 5.50
Drinks per Drinking Days, Least Squares Mean (Estimated Mean) (all genotypes, model 5-HTTLPR and RS1150226): 5.23
Drinks per Drinking Days, Least Squares Mean (Estimated Mean) (all genotypes, model RS1062613): 5.66
Drinks per Drinking Days, Least Squares Mean (Estimated Mean) (all genotypes, model RS1150226): 5.31
Drinks per Drinking Days, Least Squares Mean (Estimated Mean) (all genotypes, model RS4938056): 6.05
Drinks per Drinking Days, Least Squares Mean (Estimated Mean) (all genotypes, model RS4938056 and 5-HTTLPR): 5.86
Drinks per Drinking Days, Least Squares Mean (Estimated Mean) (all genotypes, model RS17614942): 5.20
Drinks per Drinking Days, Least Squares Mean (Estimated Mean) (all genotypes, model RS17614942 and 5-HTTLPR): 5.09
Drinks per Drinking Days, Least Squares Mean (Estimated Mean) (all genotypes, simplified model, combined genotype LL + CT/TT vs Others): 5.43
Least Squares Mean, Drinks per Drinking Days (Others (not LL + TT or AC or AG)): 6.42
Estimate, OND vs. Placebo, drinks per drinking days (DDD) (RS1042173 (TT)): −0.86 DDD
Least Squares Mean, Drinks per Drinking Days (RS1150226 AG (as printed, Table 3F)): 6.08
Least Squares Mean, Drinks per Drinking Days (RS1150226 AG/AA): 4.20
Least Squares Mean, Drinks per Drinking Days (RS1150226 GG): 6.11
Least Squares Mean, Drinks per Drinking Days (RS1150226 GG/AA (as printed, Table 3F)): 4.19
Least Squares Mean, Drinks per Drinking Days (RS17614942 AC): 3.87
Least Squares Mean, Drinks per Drinking Days (RS17614942 AC/AA): 3.90
